Columns and labels:
Test in all cases: competitive isoTOP-ABPP
Assay type in all cases: binding
LMNA Prelamin-A/C = target: T1, LMNA Prelamin-A/C (Homo sapiens, UniProt P02545); settings: for R value (DMSO/fragment) for probe 1 labeling: P02545_K135; for R value (DMSO/fragment) for probe 1 labeling / isoTOP-ABPP reactivity ratio at lysine P02545_K135: 50 uM, 231 sol, in vitro; for isoTOP-ABPP ratio, lysine P02545_K135: 50 uM_231_sol_in vitro
T1 construct: isoTOP-ABPP experiments performed in cell lysates (in vitro); endogenous in cells; host or cells: MDA-MB-231 soluble lysate
T1 sequence (P02545 1-664): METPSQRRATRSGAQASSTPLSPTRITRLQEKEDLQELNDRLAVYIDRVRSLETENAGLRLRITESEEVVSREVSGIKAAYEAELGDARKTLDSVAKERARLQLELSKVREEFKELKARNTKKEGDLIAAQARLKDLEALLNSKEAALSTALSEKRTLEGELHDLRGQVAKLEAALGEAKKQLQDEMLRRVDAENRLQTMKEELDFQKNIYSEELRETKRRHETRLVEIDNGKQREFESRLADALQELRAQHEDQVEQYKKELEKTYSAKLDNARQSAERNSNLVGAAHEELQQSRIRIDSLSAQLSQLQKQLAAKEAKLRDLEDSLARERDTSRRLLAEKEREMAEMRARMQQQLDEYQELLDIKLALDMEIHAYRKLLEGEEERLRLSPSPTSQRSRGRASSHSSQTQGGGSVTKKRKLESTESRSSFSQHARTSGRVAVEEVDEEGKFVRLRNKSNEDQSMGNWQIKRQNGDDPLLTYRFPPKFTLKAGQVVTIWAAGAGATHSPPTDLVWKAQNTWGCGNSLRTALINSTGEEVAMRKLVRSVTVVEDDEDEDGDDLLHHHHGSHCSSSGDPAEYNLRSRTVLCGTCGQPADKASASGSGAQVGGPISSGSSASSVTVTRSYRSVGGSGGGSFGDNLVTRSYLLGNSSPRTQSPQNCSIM
Summary of the method: (§1)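 Readout: isotopic light/heavy MS1 peak-area ratio (R, DMSO heavy over compound light), median across peptides sharing a modified lysine. Lysate received fragment (activated esters 50 μM, guanidinylating agents 100 μM final) or DMSO, then 0.1 mM STP-alkyne probe for 1 h at ambient temperature.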

[1] = target: T2, WARS Tryptophan--tRNA ligase, cytoplasmic (Homo sapiens, UniProt P23381); settings: 50 uM, 231 sol, in vitro; for R value (DMSO/fragment) for probe 1 labeling: P23381_K256
T2 construct: isoTOP-ABPP experiments performed in cell lysates (in vitro); endogenous in cells; host or cells: soluble proteome of human cancer cell lines (MDA-MB-231; Ramos and Jurkat also prepared)
T2 sequence (P23381 1-471): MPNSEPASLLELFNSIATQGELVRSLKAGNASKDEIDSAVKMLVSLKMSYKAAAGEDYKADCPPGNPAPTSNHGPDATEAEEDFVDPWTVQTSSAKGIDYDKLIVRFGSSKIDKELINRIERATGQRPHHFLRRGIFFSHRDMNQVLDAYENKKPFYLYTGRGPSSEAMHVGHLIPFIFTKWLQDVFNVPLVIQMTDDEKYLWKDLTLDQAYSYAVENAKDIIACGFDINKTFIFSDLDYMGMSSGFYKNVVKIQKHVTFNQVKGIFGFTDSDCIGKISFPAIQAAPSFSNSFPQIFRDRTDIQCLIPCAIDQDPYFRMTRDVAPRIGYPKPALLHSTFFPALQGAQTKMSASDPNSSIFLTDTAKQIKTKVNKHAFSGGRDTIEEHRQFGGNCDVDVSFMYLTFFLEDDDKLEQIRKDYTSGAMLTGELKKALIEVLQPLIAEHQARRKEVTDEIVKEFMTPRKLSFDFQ
Summary of the method: as §1

[2] = target: T3, KPNA2 Importin subunit alpha-2 (Homo sapiens, UniProt P52292); settings: for R value (DMSO/fragment) for probe 1 labeling: P52292_K459; for R value (DMSO/fragment) for probe 1 labeling / isoTOP-ABPP reactivity ratio at lysine P52292_K459: 50 uM, 231 sol, in vitro; for isoTOP-ABPP ratio, lysine P52292_K459: 50 uM_231_sol_in vitro
T3 construct: isoTOP-ABPP experiments performed in cell lysates (in vitro); endogenous in cells; host or cells: soluble proteome of human cancer cell lines (MDA-MB-231, Ramos, Jurkat)
Summary of the method: as §1

EEF2 Elongation factor 2 = target: T4, EEF2 Elongation factor 2 (Homo sapiens, UniProt P13639); settings: for R value (DMSO/fragment) for probe 1 labeling / isoTOP-ABPP reactivity ratio at lysine P13639_K235 / isoTOP-ABPP reactivity ratio at lysine P13639_K318: 50 uM, 231 sol, in vitro; for isoTOP-ABPP ratio, lysine P13639_K235 / isoTOP-ABPP ratio, lysine P13639_K318: 50 uM_231_sol_in vitro
T4 construct: isoTOP-ABPP experiments performed in cell lysates (in vitro); endogenous in cells; host or cells: soluble proteome of human cancer cell lines (MDA-MB-231; Ramos and Jurkat also prepared)
Summary of the method: as §1

## O=C(CCc1cn(-c2ccccc2)nc1-c1ccccc1)Oc1c(F)c(F)c(F)c(F)c1F [fragment 19, Pentafluorophenyl 3-(1,3-diphenyl-1H-pyrazol-4-yl)propanoate]
LMNA Prelamin-A/C
  R value (DMSO/fragment) for probe 1 labeling: 1.1
[1]
  R value (DMSO/fragment) for probe 1 labeling: 1.2
[2]
  R value (DMSO/fragment) for probe 1 labeling: 2.3
EEF2 Elongation factor 2; P13639_K235
  R value (DMSO/fragment) for probe 1 labeling: 1.2
EEF2 Elongation factor 2; P13639_K318
  R value (DMSO/fragment) for probe 1 labeling: 1.1

## O=C(Oc1c(F)c(F)c(F)c(F)c1F)C(c1ccccc1)c1ccccc1 [fragment 20, Pentafluorophenyl 2,2-diphenylacetate]
LMNA Prelamin-A/C
  R value (DMSO/fragment) for probe 1 labeling: 1.0
[1]
  R value (DMSO/fragment) for probe 1 labeling: 1.3
[2]
  R value (DMSO/fragment) for probe 1 labeling: 5.5
EEF2 Elongation factor 2; P13639_K235
  R value (DMSO/fragment) for probe 1 labeling: 1.1
EEF2 Elongation factor 2; P13639_K318
  R value (DMSO/fragment) for probe 1 labeling: 1.1

## O=C(Oc1c(F)c(F)c(F)c(F)c1F)c1cc(C(F)(F)F)cc(C(F)(F)F)c1 [fragment 21, Pentafluorophenyl 3,5-bis(trifluoromethyl)benzoate]
LMNA Prelamin-A/C
  R value (DMSO/fragment) for probe 1 labeling: 1.0
[1]
  R value (DMSO/fragment) for probe 1 labeling: 1.1
[2]
  R value (DMSO/fragment) for probe 1 labeling: 1.0
EEF2 Elongation factor 2; P13639_K235
  R value (DMSO/fragment) for probe 1 labeling: 1.1
EEF2 Elongation factor 2; P13639_K318
  R value (DMSO/fragment) for probe 1 labeling: 1.2

## Cn1cc(CC(=O)Oc2c(F)c(F)c(F)c(F)c2F)c2ccccc21 [fragment 22, Pentafluorophenyl 2-(1-methyl-1H-indol-3-yl)acetate]
LMNA Prelamin-A/C
  R value (DMSO/fragment) for probe 1 labeling: 1.0
[1]
  R value (DMSO/fragment) for probe 1 labeling: 1.0
[2]
  R value (DMSO/fragment) for probe 1 labeling: 6.2
EEF2 Elongation factor 2; P13639_K235
  R value (DMSO/fragment) for probe 1 labeling: 2.9
EEF2 Elongation factor 2; P13639_K318
  R value (DMSO/fragment) for probe 1 labeling: 5.6

## COc1cc(CCC(=O)Oc2c(F)c(F)c(F)c(F)c2F)cc(OC)c1OC [fragment 23, Pentafluorophenyl 3-(3,4,5-trimethoxyphenyl)propanoate]
LMNA Prelamin-A/C
  R value (DMSO/fragment) for probe 1 labeling: 0.9
[2]
  R value (DMSO/fragment) for probe 1 labeling: 1.9
EEF2 Elongation factor 2; P13639_K235
  R value (DMSO/fragment) for probe 1 labeling: 1.6
EEF2 Elongation factor 2; P13639_K318
  R value (DMSO/fragment) for probe 1 labeling: 1.6

## O=C(Oc1c(F)c(F)c(F)c(F)c1F)C1CCN(C(=O)OCc2ccccc2)CC1 [fragment 24, 1-Benzyl 4-(pentafluorophenyl) piperidine-1,4-dicarboxylate]
[2]
  isoTOP-ABPP reactivity ratio at lysine P52292_K459: 1.2
EEF2 Elongation factor 2
  isoTOP-ABPP reactivity ratio at lysine P13639_K235: 1.1
  isoTOP-ABPP reactivity ratio at lysine P13639_K318: 1.2

## O=C(Oc1c(F)c(F)c(F)c(F)c1F)c1ccc2ccccc2n1 [fragment 25, Pentafluorophenyl quinoline-2-carboxylate]
LMNA Prelamin-A/C
  isoTOP-ABPP reactivity ratio at lysine P02545_K135: 0.9
[1]
  isoTOP-ABPP reactivity ratio at lysine P23381_K256: 4.4
[2]
  isoTOP-ABPP reactivity ratio at lysine P52292_K459: 1.3
EEF2 Elongation factor 2
  isoTOP-ABPP reactivity ratio at lysine P13639_K235: 1.9
  isoTOP-ABPP reactivity ratio at lysine P13639_K318: 2.3

## O=C(CCc1coc2cc(F)ccc2c1=O)Oc1c(F)c(F)c(F)c(F)c1F [fragment 26, Pentafluorophenyl 3-(7-fluoro-4-oxo-4H-chromen-3-yl)propanoate]
[1]
  isoTOP-ABPP reactivity ratio at lysine P23381_K256: 2.3
[2]
  isoTOP-ABPP reactivity ratio at lysine P52292_K459: 8.2
EEF2 Elongation factor 2
  isoTOP-ABPP reactivity ratio at lysine P13639_K235: 1.3
  isoTOP-ABPP reactivity ratio at lysine P13639_K318: 1.1

## O=C(CN1C(=O)c2ccccc2C1=O)Oc1c(F)c(F)c(F)c(F)c1F [fragment 27, Pentafluorophenyl 2-(1,3-dioxoisoindolin-2-yl)acetate]
[1]
  isoTOP-ABPP reactivity ratio at lysine P23381_K256: 2.7
[2]
  isoTOP-ABPP reactivity ratio at lysine P52292_K459: 1.3
EEF2 Elongation factor 2
  isoTOP-ABPP reactivity ratio at lysine P13639_K235: 5.7

## CCn1cc(C(=O)Oc2c(F)c(F)c(F)c(F)c2F)c(=O)c2ccc(C)nc21 [fragment 28, Pentafluorophenyl 1-ethyl-7-methyl-4-oxo-1,4-dihydro-1,8-naphthyridine-3-carboxylate]
[1]
  isoTOP-ABPP reactivity ratio at lysine P23381_K256: 1.0
[2]
  isoTOP-ABPP reactivity ratio at lysine P52292_K459: 1.3
EEF2 Elongation factor 2
  isoTOP-ABPP reactivity ratio at lysine P13639_K235: 1.4
  isoTOP-ABPP reactivity ratio at lysine P13639_K318: 1.6

## O=C(CCc1cn(-c2ccccc2)nc1-c1ccccc1)Oc1ccc([N+](=O)[O-])cc1[N+](=O)[O-] [fragment 29, 2,4-Dinitrophenyl 3-(1,3-diphenyl-1H-pyrazol-4-yl)propanoate]
LMNA Prelamin-A/C
  isoTOP-ABPP reactivity ratio at lysine P02545_K135: 1.0
[1]
  isoTOP-ABPP reactivity ratio at lysine P23381_K256: 0.9
[2]
  isoTOP-ABPP reactivity ratio at lysine P52292_K459: 2.0
EEF2 Elongation factor 2
  isoTOP-ABPP reactivity ratio at lysine P13639_K235: 1.0
  isoTOP-ABPP reactivity ratio at lysine P13639_K318: 0.9

## O=C(Oc1ccc([N+](=O)[O-])cc1[N+](=O)[O-])C(c1ccccc1)c1ccccc1 [fragment 30, 2,4-Dinitrophenyl 2,2-diphenylacetate]
LMNA Prelamin-A/C
  isoTOP-ABPP reactivity ratio at lysine P02545_K135: 20.0
[1]
  isoTOP-ABPP reactivity ratio at lysine P23381_K256: 1.1
[2]
  isoTOP-ABPP reactivity ratio at lysine P52292_K459: 4.3
EEF2 Elongation factor 2
  isoTOP-ABPP reactivity ratio at lysine P13639_K235: 1.4
  isoTOP-ABPP reactivity ratio at lysine P13639_K318: 1.4

## O=C(Oc1ccc([N+](=O)[O-])cc1[N+](=O)[O-])c1cc(C(F)(F)F)cc(C(F)(F)F)c1 [fragment 31, 2,4-Dinitrophenyl 3,5-bis(trifluoromethyl)benzoate]
LMNA Prelamin-A/C
  isoTOP-ABPP reactivity ratio at lysine P02545_K135: 1.3
[1]
  isoTOP-ABPP reactivity ratio at lysine P23381_K256: 0.9
[2]
  isoTOP-ABPP reactivity ratio at lysine P52292_K459: 1.3
EEF2 Elongation factor 2
  isoTOP-ABPP reactivity ratio at lysine P13639_K235: 1.1
  isoTOP-ABPP reactivity ratio at lysine P13639_K318: 1.2

## Cn1cc(CC(=O)Oc2ccc([N+](=O)[O-])cc2[N+](=O)[O-])c2ccccc21 [fragment 32, 2,4-Dinitrophenyl 2-(1-methyl-1H-indol-3-yl)acetate]
LMNA Prelamin-A/C
  isoTOP-ABPP reactivity ratio at lysine P02545_K135: 20.0
[1]
  isoTOP-ABPP reactivity ratio at lysine P23381_K256: 0.9
[2]
  isoTOP-ABPP reactivity ratio at lysine P52292_K459: 1.8
EEF2 Elongation factor 2
  isoTOP-ABPP reactivity ratio at lysine P13639_K235: 1.4
  isoTOP-ABPP reactivity ratio at lysine P13639_K318: 1.5

## O=C(Oc1c(F)c(F)c(C(F)(F)F)c(F)c1F)c1cc(C(F)(F)F)cc(C(F)(F)F)c1 [fragment 47, 2,3,5,6-Tetrafluoro-4-(trifluoromethyl)phenyl 3,5-bis(trifluoromethyl)benzoate]
LMNA Prelamin-A/C
  isoTOP-ABPP ratio, lysine P02545_K135: 1.2
[2]
  isoTOP-ABPP ratio, lysine P52292_K459: 1.2
EEF2 Elongation factor 2
  isoTOP-ABPP ratio, lysine P13639_K235: 1.1
  isoTOP-ABPP ratio, lysine P13639_K318: 1.1

## O=C(Oc1c(F)c(F)cc(F)c1F)c1cc(C(F)(F)F)cc(C(F)(F)F)c1 [fragment 48, 2,3,5,6-Tetrafluorophenyl 3,5-bis(trifluoromethyl)benzoate]
LMNA Prelamin-A/C
  isoTOP-ABPP ratio, lysine P02545_K135: 1.0
[2]
  isoTOP-ABPP ratio, lysine P52292_K459: 1.1
EEF2 Elongation factor 2
  isoTOP-ABPP ratio, lysine P13639_K235: 1.2
  isoTOP-ABPP ratio, lysine P13639_K318: 1.1

## NC(=O)c1cc(C(F)(F)F)cc(C(F)(F)F)c1 [fragment 51, reference compound]
LMNA Prelamin-A/C
  isoTOP-ABPP ratio, lysine P02545_K135: 1.0
[2]
  isoTOP-ABPP ratio, lysine P52292_K459: 0.9
EEF2 Elongation factor 2
  isoTOP-ABPP ratio, lysine P13639_K235: 0.9
  isoTOP-ABPP ratio, lysine P13639_K318: 0.9

From patent US20210255193A1, “LYSINE REACTIVE PROBES AND USES THEREOF” (The Scripps Research Institute, priority 2017, published 2021)
